Biological target: T1, hTAS1R1 E301A/rTAS1R3 (UniProt Q7RTX1+Q923K1, E301A)
T1 construct: UniProtKB number Q7RTX1–1); The cDNA coding region of rTAS1R3 was synthesized with optimized-codon usage for human expression; expressed in transfected cells; host or cells: HEK293T/17
T1 sequence (Q7RTX1 21-841 E301A): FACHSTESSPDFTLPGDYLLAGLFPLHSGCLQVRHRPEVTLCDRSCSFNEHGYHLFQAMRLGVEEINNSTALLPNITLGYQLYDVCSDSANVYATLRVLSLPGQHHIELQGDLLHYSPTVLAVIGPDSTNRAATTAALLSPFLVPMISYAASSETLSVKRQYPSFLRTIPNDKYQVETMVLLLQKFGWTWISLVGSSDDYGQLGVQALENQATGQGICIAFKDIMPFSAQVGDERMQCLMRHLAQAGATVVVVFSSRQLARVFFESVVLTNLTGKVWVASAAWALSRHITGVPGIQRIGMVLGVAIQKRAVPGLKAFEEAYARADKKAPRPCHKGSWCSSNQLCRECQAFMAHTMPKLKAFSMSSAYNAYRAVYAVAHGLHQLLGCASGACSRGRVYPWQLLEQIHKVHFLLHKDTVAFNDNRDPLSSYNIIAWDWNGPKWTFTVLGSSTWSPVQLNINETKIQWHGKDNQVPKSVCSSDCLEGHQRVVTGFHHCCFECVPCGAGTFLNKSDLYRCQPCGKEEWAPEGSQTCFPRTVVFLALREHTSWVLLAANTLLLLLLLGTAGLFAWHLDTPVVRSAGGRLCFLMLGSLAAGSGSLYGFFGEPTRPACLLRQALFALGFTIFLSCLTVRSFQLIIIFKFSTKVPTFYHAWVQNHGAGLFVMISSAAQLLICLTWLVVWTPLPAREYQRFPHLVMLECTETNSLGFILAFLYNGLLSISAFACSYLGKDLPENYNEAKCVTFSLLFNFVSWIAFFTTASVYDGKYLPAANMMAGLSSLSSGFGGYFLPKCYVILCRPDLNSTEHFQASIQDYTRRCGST
T1 sequence (Q923K1 21-858): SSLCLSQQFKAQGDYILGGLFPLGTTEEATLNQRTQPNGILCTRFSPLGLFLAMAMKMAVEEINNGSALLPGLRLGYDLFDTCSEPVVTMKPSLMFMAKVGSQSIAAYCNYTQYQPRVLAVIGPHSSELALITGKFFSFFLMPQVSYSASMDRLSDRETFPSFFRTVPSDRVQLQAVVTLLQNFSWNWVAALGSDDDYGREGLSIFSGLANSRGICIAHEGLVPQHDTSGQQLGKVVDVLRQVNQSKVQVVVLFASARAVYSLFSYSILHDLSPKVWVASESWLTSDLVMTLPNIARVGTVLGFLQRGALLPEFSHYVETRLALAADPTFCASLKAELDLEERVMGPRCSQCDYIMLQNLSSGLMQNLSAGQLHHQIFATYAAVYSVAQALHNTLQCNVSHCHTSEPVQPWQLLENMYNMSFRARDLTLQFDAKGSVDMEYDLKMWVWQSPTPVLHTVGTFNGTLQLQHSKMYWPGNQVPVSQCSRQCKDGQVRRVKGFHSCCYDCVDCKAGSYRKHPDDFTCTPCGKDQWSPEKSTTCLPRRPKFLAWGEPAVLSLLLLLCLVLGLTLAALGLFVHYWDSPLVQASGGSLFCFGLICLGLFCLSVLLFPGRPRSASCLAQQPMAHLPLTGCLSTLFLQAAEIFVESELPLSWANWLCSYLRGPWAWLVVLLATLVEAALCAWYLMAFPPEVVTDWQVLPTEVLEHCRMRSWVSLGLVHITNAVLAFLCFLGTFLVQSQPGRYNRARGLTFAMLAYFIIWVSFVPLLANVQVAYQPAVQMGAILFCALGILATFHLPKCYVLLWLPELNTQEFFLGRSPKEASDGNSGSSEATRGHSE
Test: cell-based
Assay type: cell-based, human, rat
Conditions: for response to the agonist alone, vs WT: E301A
Text: Chimeric Gα proteins, such as Gα16Gust44, Gα16Gi3 or Gα15i2, are widely used in the functional expression of TAS1R receptors ([Backes et al., 2015]; [Suess et al., 2015]; [Toda et al., 2021], [Toda et al., 2013], [Toda et al., 2018]; [Zhang et al., 2008]). Chimeric Gα15i2 (([Toda et al., 2013]), Supplementary data) was generated by replacing the last five residues of the C-terminal tail of rat Gα15i2 (EINLL) (UniProt number G3V6N8; https://www.uniprot.org/uniprot/) with the counterpart sequence from human GNAI2 (DCGLF) (UniProt number P04899-1) and cloning into the pcDNA3.1/Hygro vector (Invitrogen, Thermo Fisher Scientific, Illkirch, France) between the HindIII and NotI restriction sites, resulting in the plasmid pcDNA3.1-Gα15i2. Chimeric Gα16Gust44 construct have already been reported ([Raliou et al., 2011]). Briefly, Gα16Gust44 was generated by replacing the C-terminal of Gα16 with the C-terminal 44 residues of gustducin. As previously described, hTAS1R1 was amplified from human fungiform papillae cDNA and cloned and inserted into pcDNA3 (Invitrogen), generating pcDNA3-TAS1R1-WT (wild-type) ([Raliou et al., 2011]). […] The cDNA coding region of rTAS1R3 was synthesized with optimized-codon usage for human expression (Genewiz) and was cloned and inserted into the mammalian pcDNA4/myc-HisA (Invitrogen) expression vector between the EcoRI and NotI restriction sites, resulting in the plasmid pcDNA4-rTAS1R3. […] The sequence integrity of all the plasmid constructs was verified via automated DNA sequencing (Genewiz).
The hTAS1R1 mutants were co-expressed with the rTAS1R3 subunit in HEK293 cells. […] As a control, the functionality of the mutated receptors was checked after stimulation with S807 (Fig. S8), which interacts with TAS1R1-TMD ([Zhang et al., 2008]).

SMILES	response to the agonist alone, vs WT	EC50 [mM]
N[C@@H](CCC(=O)O)C(=O)O [L-Glu, L-glutamic acid, reference compound]	completely suppressed	
N[C@@H](CCC(=O)N[C@@H](CS)C(=O)NCC(=O)O)C(=O)O [GSH, γ-L-glutamyl-L-cysteinyl-glycine]	fully abolished	> 30

Reference: paper PMC12615753, “Glutathione as a taste modulator: molecular mechanisms of interaction with umami and sweet taste receptors” (Food Chemistry: Molecular Sciences, 2025)
